How the values were obtained:
mice [1] = assay: Learned helplessness paradigm in mice; assay type: in vivo, ICR mice; conditions: sub‐chronic (4 days), 10 mg/kg ig., after inescapable shock training
Description: For 4 consecutive days, mice were putted into the shuttle box device (40 × 10 × 13 cm), the device was splited into two compartments, and mice could free access. In the IS group, each mouse received 360 inescapable shocks (current intensity 0.30 mA, duration 2 s, 3‐13 s variable interval, about 1 h) over four consecutive training days. Animals in the NIS group underwent the same handling without receiving the foot shocks. 10 trials were conducted on mice to screen helpless, each of which includes conditioned stimulation period (3‐s lamp on), non‐conditioned stimulation period (3‐s lamp +shock), and interval period (without any stimulus, 25 s). […] The EF values were balanced for each group in the experiment. Using Graphic State software (Coulbourn Instruments Inc.,) recorded the number of escape failures and the latency to escape.

mice [2] = assay: Tail suspension test in mice; assay type: in vivo, ICR mice; conditions: oral, 10, 20 or 40 mg/kg, vs. vehicle
Description: The tail suspension test (TST) was conducted as described earlier. ^28 , ^29 Eighty naive mice were randomly divided into eight treatment groups (n = 10/group). All mice received a single dose of the drug (p.o.). After 60 min of gavage administration, mice were suspended from the top of the apparatus (25 × 25 × 35 cm) using tape about 1 cm from the tail tip. The duration of immobility was recorded in the last 4 min for a total of 6 min. When mice are passively suspended immobile, they are judged to be stationary.

5‐HT2C receptor = biological target: T1, 5‐HT2C receptor (Rattus norvegicus, UniProt P08909); assay: 5‐HT2C receptor binding assay ([3H]‐LSD competition); conditions: mean ± SEM, three independent experiments
T1 construct: 5‐HT2C receptor membrane protein was extracted from rat hippocampus and a stably transfected HEK293 cell line; from tissue; host or cells: rat hippocampus
T1 sequence (P08909 33-460): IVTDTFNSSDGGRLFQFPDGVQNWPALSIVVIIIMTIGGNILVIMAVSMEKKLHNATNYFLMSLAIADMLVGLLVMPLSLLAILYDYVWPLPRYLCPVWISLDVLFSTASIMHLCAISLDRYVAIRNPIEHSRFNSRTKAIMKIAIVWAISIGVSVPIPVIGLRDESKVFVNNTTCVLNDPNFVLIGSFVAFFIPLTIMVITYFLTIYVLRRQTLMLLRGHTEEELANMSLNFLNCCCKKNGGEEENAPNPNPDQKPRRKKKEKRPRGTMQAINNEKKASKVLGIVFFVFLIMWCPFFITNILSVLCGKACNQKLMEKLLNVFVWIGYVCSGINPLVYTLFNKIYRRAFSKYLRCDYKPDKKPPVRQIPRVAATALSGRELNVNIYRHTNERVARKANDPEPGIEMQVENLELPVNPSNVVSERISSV
Description: Hippocampal membrane preparations were obtained using previously described methods. ^24 , ^25 , ^26 Briefly, rats were decapitated and their brains were rapidly removed. Next, the hippocampus was dissected and subsequently homogenized in 40 volumes of ice‐cold buffer (50 mM Tris‐HCl Buffer, pH 7.4) and then centrifuged at 40,000 × g at 4°C for 10 min. The particles were re‐suspended and centrifuged again. In order to remove endogenous monoamines, the final suspension was incubated at 37°C for 20 min and then centrifuged as usual. The final pellets were frozen at −80°C at once for up to 1 week.
Human MT1/MT2 receptor membrane proteins were obtained from Perkin‐Elmer (ES‐620 [MT1] and ES‐621 [MT2]). The stably transfected 5‐HT2C receptor HEK293 cell line was prepared using a nucleus‐cytoplasm‐membrane preparation kit (Applagin Technologies Inc.). Briefly, cells were harvested at 4°C, 110 00 × g and centrifugation for 5 min. Homogenize pellets in the assay buffer (50 mM Tris‐HCl buffer containing 120 mM NaCl and 5 mM KCl, pH 7.4) and then centrifuged twice at 4°C, 36,000 × g for 15 min. […]
Receptor membrane protein, 5‐HT2C (50 μl), was added to all the tubes. Non‐specific binding was determined by the presence of unlabeled 10 μM 5‐HT and pre‐reacted for 30 min. […] Finally, 1 ml of scintillation fluid was added and the radioactive intensity measured by liquid scintillation counting.

rats = assay: Forced swimming test in rats; assay type: in vivo, Sprague Dawley (SD) rats; conditions: oral, 40 mg/kg
Description: The forced swimming test (FST) was conducted as described earlier. ^30 Eighty naive rats were randomized into eight treatment groups (n = 9‐12/group). All rats received a single drug administration (p.o.). The procedure consisted of two sessions, to be specific, a pre‐test session and a test session. A cylindrical container (diameter, 20 cm; height, 40 cm; including 30 cm of water and kept at 25℃) was used. During the pre‐test phase, rats were required to perform forced swimming for 15 min. The test session was performed 24 h later, put the rats in the same cylindrical container for 5 min and immobility duration over 5 min recorded. […] Rats were considered immobile when they entered a floating posture, specifically, immobile, passive, and with their heads above water.

CUS rats = assay: Novelty‐suppressed feeding test in the CUS model; assay type: in vivo; conditions: chronic, 10 mg/kg
Description: In order to further examine the antidepressant effects of GW117, chronic unpredictable stress (CUS) model was utilized; the methods were as described before. ^29 , ^31 After 1 week of training, rats underwent sucrose training of 48 h. After training, a sucrose baseline test was performed. […] Gastric gavage was given 1 h before the stress (08:00–09:00). Except for the non‐stressed group, all rats were stimulated by a series of stressors. stress methods included the following: fast on food and water (24 h), moisture cage (150 g sawdust bedding in 200 ml water), overnight illumination, low‐intensity strobe illumination (100 flashes/min), forced swimming (5 min at 10℃), white noise (110 dB), tail pinch (1 cm from tail root, 6 min), 45℃ cage tilt, and restraint (1–2 h). Stressors need to be used continuously and randomly. Non‐stressed rats received free food and water, but were required to fast for 14 h before sucrose preference test. After 4 weeks of stress, the sucrose preference test (SPT) (on day 25), open field test (OFT) (on day 28), and novelty‐suppressed feeding (NSF) test (on day 29) were carried out. […]

MT2 receptor = biological target: T2, MT2 receptor (Homo sapiens, UniProt P49286); assay: [35S]‐GTPγS binding assay, MT2; assay type: biochemical; conditions: [35S]‐GTPγS binding; read-out: maximal increase over basal binding (% Emax), MT2 receptor
T2 construct: purchased Perkin‐Elmer ES‐621
T2 sequence (P49286 1-362): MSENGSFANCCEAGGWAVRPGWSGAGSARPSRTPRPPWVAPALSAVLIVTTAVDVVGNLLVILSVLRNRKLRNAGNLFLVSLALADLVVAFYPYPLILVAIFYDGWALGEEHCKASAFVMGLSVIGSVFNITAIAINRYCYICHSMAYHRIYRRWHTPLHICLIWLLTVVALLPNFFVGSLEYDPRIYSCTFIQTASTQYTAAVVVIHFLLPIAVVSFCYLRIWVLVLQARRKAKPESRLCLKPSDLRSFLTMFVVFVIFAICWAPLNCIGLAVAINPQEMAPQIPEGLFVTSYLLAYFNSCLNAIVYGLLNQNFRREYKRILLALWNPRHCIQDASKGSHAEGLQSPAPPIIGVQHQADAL
Description: (§1) This experiment was mentioned earlier. ^27 In short, HEK293 cell membrane stably expressing human 5‐HT2C receptors or rat hippocampal tissue membrane or MT1/MT2 receptors was re‐suspended in buffer (50 mmol/L Tris, 100 mmol/L NaCl, 5 mmol/L MgCl2·6H2O, 0.1 mmol/L EDTA‐Na2·6H2O, 0.2 mmol/L EGTA, pH 7.4) and incubated with the test compound (100 μM GDP, 0.2 nM [^35S]‐GTP, or [^3H]PIP) for 60 min at 28℃. At the end of the experiment, Whatman GF/C filters pre‐soaked with distilled water were used for rapid filtration followed by washing with 5 ml of ice‐cold Tris buffer. Determination of non‐specific binding in the presence of GTPγS and radioactivity was measured by liquid scintillation counting. Calculation of the concentration produces a half‐maximal effect (EC50) and the maximal increase above the baseline value.

MT1 receptor = biological target: T3, MT1 receptor (Homo sapiens, UniProt P48039); assay: [35S]‐GTPγS binding assay, MT1; assay type: biochemical; conditions: [35S]‐GTPγS binding; read-out: maximal increase over basal binding (% Emax), MT1 receptor
T3 construct: purchased Perkin‐Elmer ES‐620
Description: as §1

[3] = design: method as in PMID 31657152; conditions: single dose; cited from earlier work

T3 sequence (P48039 whole entry): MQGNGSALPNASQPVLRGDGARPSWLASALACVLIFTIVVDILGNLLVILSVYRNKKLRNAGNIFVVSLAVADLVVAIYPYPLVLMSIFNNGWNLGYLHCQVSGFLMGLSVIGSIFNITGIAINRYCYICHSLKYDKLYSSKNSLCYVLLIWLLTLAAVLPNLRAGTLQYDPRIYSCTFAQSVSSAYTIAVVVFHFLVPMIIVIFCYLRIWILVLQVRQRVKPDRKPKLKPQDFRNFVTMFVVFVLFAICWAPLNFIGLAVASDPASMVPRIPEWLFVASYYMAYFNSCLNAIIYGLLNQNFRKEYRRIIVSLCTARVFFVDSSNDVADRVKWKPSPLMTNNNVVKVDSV

## CNCCC(Oc1ccc(C(F)(F)F)cc1)c1ccccc1 (stereo not drawn) [Fluoxetine, reference compound]
Mice [1]
  deficit of avoidance behavior (escape latency and number of escape failures): significantly reversed the deficit of avoidance behavior

## COc1ccc2cccc(CCNC(C)=O)c2c1 [Agomelatine, reference compound]
Mice [2]
  immobility time in TST: had no effect on immobility time
5‐HT2C receptor
  Ki: 640 ± 250 pM
rats
  immobility time in FST: significantly decreased the immobility time
CUS rats
  feeding latency in NSF test: not effective
MT2 receptor
  Emax: 101 ± 4.56%
MT1 receptor
  Emax: 94 ± 7.34%

## CNC1(c2ccccc2Cl)CCCCC1=O (stereo not drawn) [ketamine]
[3]
  duration of rapid antidepressant response: at least three
  mean onset time of rapid antidepressant response: four
